This note sets out measurements from US9969687B2, “Compounds useful as CCR9 modulators” (Norgine B.V., priority 2013, dated 2018).

Each structure is given as a SMILES string.

Sequence of CCR9 (P51686 whole entry): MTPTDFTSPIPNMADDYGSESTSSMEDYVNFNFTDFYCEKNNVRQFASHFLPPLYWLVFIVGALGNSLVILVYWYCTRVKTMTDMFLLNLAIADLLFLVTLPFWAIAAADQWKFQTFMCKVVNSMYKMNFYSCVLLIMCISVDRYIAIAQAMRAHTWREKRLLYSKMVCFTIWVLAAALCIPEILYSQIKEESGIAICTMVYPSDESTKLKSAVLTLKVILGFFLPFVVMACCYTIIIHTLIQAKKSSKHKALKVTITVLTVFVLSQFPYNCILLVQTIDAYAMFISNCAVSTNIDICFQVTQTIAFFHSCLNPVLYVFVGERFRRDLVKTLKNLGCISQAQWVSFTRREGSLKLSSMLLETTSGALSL

The test addresses CCR9 (Homo sapiens (Human), UniProt P51686). Kind of test: FLIPR calcium flux assay using MOLT4 cells, TECK stimulation. It is filed as cell-based. As to conditions: MOLT4 cells (human T-cell line). The procedure:
Biological Activity: FLIPR Assay Using MOLT4 Cells
A calcium flux assay was used to determine the ability of the compounds to interfere with the binding between CCR9 and its chemokine ligand (TECK) in MOLT4 cells (a human T-cell line). MOLT4 cells were seeded (100,000 cells/well) in corning cell culture plates (Cat #3603) in assay buffer (1×HBSS, 20 mM HEPES) containing 2.5 mM Probenecid. The plate was centrifuged at 1200 rpm for 3 minutes and incubated at 37° C./5% CO2 for 2 hours. A 0.3× Fluo-4 NW calcium dye was prepared in assay buffer containing 5 mM Probenecid and stored in the dark. Each well was loaded with 25 μl of 0.3× Fluo-4 NW calcium dye and incubated at 37° C./5% CO2 for 60 minutes and then at room temperature for 30 minutes. A half-log serially diluted concentration response curve was prepared at a 4× concentration for each (10 μM-0.1 nM final assay concentration) and 25 μL of the compound then transferred to the cells (100 μL final volume) for 60 minutes prior to stimulation (30 minutes at 37° C./5% CO2 and 30 minutes at room temperature). […] The increased in intracellular calcium levels was measured with the FLIPR instrument. The potency of the compound as CCR9 antagonist was calculated as an IC50 using GraphPad Prism software (variable slope four parameter). The Ki of the compound was determined from the IC50 values using the following equation. IC50/1+(Agonist (TECK) conc. used in assay/EC50 of agonist (TECK) generated on day of experiment) Ki calculation: […]
On to `O=C1c2cccc(NS(=O)(=O)c3cccc(C(F)(F)F)c3)c2C(=O)N1c1cccnc1` [Compound 4], for which the Ki is 2710 nM. Take `O=C1c2cccc(NS(=O)(=O)c3ccc(OC(F)(F)F)cc3)c2C(=O)N1c1cccnc1` [Compound 5]: the inhibition constant (Ki) worked out at 123 nM. As for `O=C1c2cccc(NS(=O)(=O)c3ccc(Cl)c(C(F)(F)F)c3)c2C(=O)N1c1cccnc1` [Compound 7], the inhibition constant Ki was 206 nM. On to `O=C1c2cccc(NS(=O)(=O)c3ccc(F)c(C(F)(F)F)c3)c2C(=O)N1c1cccnc1` [Compound 8], for which the inhibitory constant (Ki) worked out at 1320 nM. On to `CC(C)(C)c1cccc(S(=O)(=O)Nc2cccc3c2C(=O)N(Cc2cccnc2)C3=O)c1` [Compound 14], for which the Ki was 1550 nM. The figure for `O=C1c2cccc(NS(=O)(=O)c3ccc(C(F)(F)F)cc3)c2C(=O)N1Cc1cccnc1` [Compound 19] is 758 nM; for `CC(C)(C)c1ccc(S(=O)(=O)Nc2cccc3c2C(=O)N(c2ccc(C#N)cc2)C3=O)cc1` [Compound 36] it is 1210 nM; for `N#Cc1cccc(N2C(=O)c3cccc(NS(=O)(=O)c4ccc(C(F)(F)F)cc4)c3C2=O)c1` [Compound 39] it is 611 nM. The figure for `N#Cc1cccc(N2C(=O)c3cccc(NS(=O)(=O)c4ccc(OC(F)(F)F)cc4)c3C2=O)c1` [Compound 40] is 1360 nM; for `N#Cc1cccc(N2C(=O)c3cccc(NS(=O)(=O)c4ccc(Cl)c(C(F)(F)F)c4)c3C2=O)c1` [Compound 41] it is 167 nM; for `O=C1c2c(Cl)ccc(NS(=O)(=O)c3ccc(Cl)c(C(F)(F)F)c3)c2C(=O)N1c1cccnc1` [Compound 48] it is 171 nM.

Regarding `O=C1c2c(Cl)ccc(NS(=O)(=O)c3ccc(OC(F)F)cc3)c2C(=O)N1c1cccnc1` [Compound 52], the inhibition constant Ki amounted to 187 nM. With `CC(C)c1ccc(S(=O)(=O)Nc2ccc(Cl)c3c2C(=O)N(c2cccnc2)C3=O)cc1` [Compound 57], the Ki came to 38 nM. As for `CC(C)(C#N)c1ccc(S(=O)(=O)Nc2ccc(Cl)c3c2C(=O)N(Cc2cccnc2)C3=O)cc1` [Compound 79], the inhibition constant Ki stood at 33 nM.

For the molecule `CC(C)c1ccc(S(=O)(=O)Nc2ccc(Cl)c3c2C(=O)N(Cc2cccnc2)C3=O)cc1` [Compound 80], the Ki came to 173 nM.

Regarding `CC(C)(C#N)c1ccc(S(=O)(=O)Nc2ccc(Cl)c3c2C(=O)N(Cc2ccc[n+]([O-])c2)C3=O)cc1` [Compound 81], the inhibitory constant (Ki) is 148 nM. With `COc1cc(N2C(=O)c3c(Cl)ccc(NS(=O)(=O)c4ccc(C(C)(C)C)cc4)c3C2=O)c[n+]([O-])c1` [Compound 91, 3-(4-(4-(tert-butyl)phenylsulfonamido)-7-chloro-1,3-dioxoisoindolin-2-yl)-5-methoxypyridine 1-oxide], the Ki came out at 50 nM. Consider `COc1cncc(N2C(=O)c3c(Cl)ccc(NS(=O)(=O)c4ccc(C(F)(F)F)cc4)c3C2=O)c1` [Compound 92], for which the Ki amounted to 255 nM. In the case of `COc1cncc(N2C(=O)c3c(Cl)ccc(NS(=O)(=O)c4ccc(Cl)c(C(F)(F)F)c4)c3C2=O)c1` [Compound 93], the inhibition constant (Ki) is 217 nM. The figure for `COc1cncc(N2C(=O)c3c(Cl)ccc(NS(=O)(=O)c4ccc(OC(F)(F)F)cc4)c3C2=O)c1` [Compound 94] is 244 nM; for `Cc1cncc(N2C(=O)c3c(Cl)ccc(NS(=O)(=O)c4ccc(C(C)C)cc4)c3C2=O)c1` [Compound 105] it is 311 nM; for `CC(C)(C)c1ccc(S(=O)(=O)Nc2ccc(Cl)c3c2C(=O)N(C(C)(C)c2cccnc2)C3=O)cc1` [Compound 107, 4-(tert-butyl)-N-(7-chloro-1,3-dioxo-2-(2-(pyridin-3-yl)propan-2-yl)isoindolin-4-yl)benzenesulfonamide] it is 318 nM. On to `CC(C)(C)c1ccc(S(=O)(=O)Nc2ccc(Cl)c3c2C(=O)N(CCc2cccnc2)C3=O)cc1` [Compound 116, 4-(tert-butyl)-N-(7-chloro-1,3-dioxo-2-(2-(pyridin-3-yl)ethyl)isoindolin-4-yl)benzenesulfonamide], for which the Ki turned out to be 100 nM. For `CC(C)(C)c1ccc(S(=O)(=O)Nc2ccc(Cl)c3c2C(=O)N(CCc2ccc[n+]([O-])c2)C3=O)cc1` [Compound 117, 3-(2-(4-(4-(tert-butyl)phenylsulfonamido)-7-chloro-1,3-dioxoisoindolin-2-yl)ethyl)pyridine 1-oxide], the Ki came out at 184 nM.

Take `COc1ccc(N2C(=O)c3c(Cl)ccc(NS(=O)(=O)c4ccc(C(C)(C)C)cc4)c3C2=O)cn1` [Compound 118, 4-(tert-butyl)-N-(7-chloro-2-(6-methoxypyridin-3-yl)-1,3-dioxoisoindolin-4-yl)benzenesulfonamide]: the inhibition constant Ki is 78 nM. Consider `N#Cc1cccc(N2C(=O)c3c(Cl)ccc(NS(=O)(=O)c4ccc(OC(F)(F)F)cc4)c3C2=O)c1` [Compound 122], for which the Ki was found to be 175 nM. For the molecule `N#Cc1cccc(N2C(=O)c3c(Cl)ccc(NS(=O)(=O)c4ccc(OC(F)F)cc4)c3C2=O)c1` [Compound 124], the inhibitory constant (Ki) was 224 nM. The figure for `CC(C)c1ccc(S(=O)(=O)Nc2ccc(Cl)c3c2C(=O)N(c2cccc(C#N)c2)C3=O)cc1` [Compound 125] is 243 nM. For `CC(C)(C)c1ccc(S(=O)(=O)Nc2ccc(C#N)c3c2C(=O)N(Cc2cccc(C#N)c2)C3=O)cc1` [Compound 127, 4-(tert-butyl)-N-(7-cyano-2-(3-cyanobenzyl)-1,3-dioxoisoindolin-4-yl)benzenesulfonamide], the inhibition constant Ki was 153 nM. In the case of `N#Cc1cccc(CN2C(=O)c3c(Cl)ccc(NS(=O)(=O)c4ccc(Cl)c(C(F)(F)F)c4)c3C2=O)c1` [Compound 132], the Ki is 252 nM.

Turning to `O=C1c2c(Cl)ccc(NS(=O)(=O)c3ccc(C(F)(F)F)cc3)c2C(=O)N1c1cncnc1` [Compound 140], the Ki is 216 nM. With `Cn1cc(N2C(=O)c3c(Cl)ccc(NS(=O)(=O)c4ccc(C(C)(C)C)cc4)c3C2=O)cn1` [Compound 142], the inhibitory constant (Ki) was found to be 41 nM. With `Cn1cc(N2C(=O)c3c(Cl)ccc(NS(=O)(=O)c4ccc(C(F)(F)F)cc4)c3C2=O)cn1` [Compound 143], the inhibition constant (Ki) came out at 64 nM.

Consider `CC(C)(C)c1ccc(S(=O)(=O)Nc2ccc(Cl)c3c2C(=O)N(c2nccs2)C3=O)cc1` [Compound 146], for which the Ki is 154 nM. Take `CC(C)c1ccc(S(=O)(=O)Nc2ccc(Cl)c3c2C(=O)N(c2cn[nH]c2)C3=O)cc1` [Compound 151]: the Ki was 42 nM. Turning to `O=C1c2c(Cl)ccc(NS(=O)(=O)c3ccc(OC(F)F)cc3)c2C(=O)N1c1cn[nH]c1` [Compound 152], the inhibitory constant (Ki) was found to be 245 nM. The value for `Cn1cnc(N2C(=O)c3c(Cl)ccc(NS(=O)(=O)c4ccc(C(F)(F)F)cc4)c3C2=O)c1` [Compound 154] was 32 nM. For `Cc1ccc(NS(=O)(=O)c2ccc(C(C)(C)C)cc2)c2c1C(=O)N(c1cccnc1)C2=O` [Compound 157, 4-(tert-butyl)-N-(7-methyl-1,3-dioxo-2-(pyridin-3-yl)isoindolin-4-yl)benzenesulfonamide], the inhibitory constant (Ki) came to 189 nM.

`Cc1ccc(NS(=O)(=O)c2ccc(C(F)(F)F)cc2)c2c1C(=O)N(Cc1cccnc1)C2=O` [Compound 161]: the inhibition constant (Ki) was found to be 568 nM. Turning to `Cc1ccc(NS(=O)(=O)c2ccc(OC(F)(F)F)cc2)c2c1C(=O)N(Cc1cccnc1)C2=O` [Compound 162], the Ki was found to be 1000 nM. The figure for `CC(C)(C)c1ccc(S(=O)(=O)Nc2ccc(Cl)c3c2C(=O)N(c2cncc(C#N)c2)C3=O)cc1` [Compound 177] is 73 nM.
